Assay results reported in patent US5698411A, “Method for determining activity of enzymes in metabolically active whole cells” (priority 1995, dated 1997).

Experiments:
Assay type in all cases: cell-based, human
granulocytes [1] = experiment: aberrant enzyme activities in febrile children, granulocytes (Table 7)
lymphocytes [2] = experiment: aberrant enzyme activities in febrile children, lymphocytes (Table 7)
lymphocytes [3] = experiment: enzyme activity with fluorogenic substrate, normal lymphocytes (Table 3A)
monocytes = experiment: aberrant enzyme activities in febrile children, monocytes (Table 7)
lymphocytes [4] = experiment: peptidase activity in leukemia and non-leukemia patients, lymphocytes (Table 6C); set-up: unit not given here
Text: (§1) Artificial intelligence was used to analyze data of cellular enzyme functions, and determine normal and disease states. Peptidases were used to distinguish leukemia from non-leukemia (output pattern). For input patterns lymphocyte and granulocyte cell types were used with aminopeptidases, cathepsins and dipeptidylpeptidase enzyme activities. In this Example, illustrated in Tables 6A-6C, three normals and three leukemia patients were used as known output patterns for the neural network to learn (in practice, the larger the learning set the more accurate unknown prediction will be). Unknowns were then presented to the learned algorithm as shown in the test case examples. Clinical diagnosis was confirmed by physicians. The trained neural network was able to correctly classify the leukemia from the non-leukemia.

granulocytes [5] = experiment: peptidase activity in leukemia and non-leukemia patients, granulocytes (Table 6C); set-up: unit not given here
Text: as §1

[6] = system: metabolically active whole cell; experiment: substrate panel in normals and HIV + patients, TB infection (Table 4); set-up: unit not given here
Method: A panel of assay compounds are assembled consisting of Ala-aminopeptidase and Lys-aminopeptidase, Dipeptidyl peptidase IV (Ala-Ala)2 rhodamine 110 and Cathepsin D to indicate possible TB infection in AIDS related cases.
A panel Of enzymatic substrates is performed consisting of Ala-aminopeptidase and Lys-aminopeptidase, Dipeptidyl peptidase IV (Ala-Ala)2 rhodamine 110 and Cathepsin D to indicate possible TB infection in AIDS related cases.

CC(=O)Oc1ccc2c(c1)Oc1cc(OC(C)=O)ccc1C21OC(=O)c2ccccc21 [FDA-NAF, fluorescein diacetate, reference compound]
aberrant enzyme activity, GRANS (granulocytes [1]; P88 Enteritis): .smallcircle.
aberrant enzyme activity, GRANS (granulocytes [1]; P97 Pyelonephritis): .smallcircle.
aberrant enzyme activity, GRANS (granulocytes [1]; P102 UTI): .smallcircle.
aberrant enzyme activity, LYMPHS (lymphocytes [2]; P88 Enteritis): .smallcircle.
aberrant enzyme activity, LYMPHS (lymphocytes [2]; P97 Pyelonephritis): .smallcircle.
aberrant enzyme activity, LYMPHS (lymphocytes [2]; P99 Viral Syndrome): .smallcircle.
aberrant enzyme activity, LYMPHS (lymphocytes [2]; P102 UTI): .smallcircle.
NORMAL LEUKOCYTE ENZYME ACTIVITY LYMPHS Mean (lymphocytes [3]): 17.98
aberrant enzyme activity, MONOS (monocytes; P88 Enteritis): .smallcircle.
aberrant enzyme activity, MONOS (monocytes; P97 Pyelonephritis): .smallcircle.

CC(C)[C@H](N)C(=O)N[C@@H](CO)C(=O)Nc1ccc2c(c1)Oc1cc(NC(=O)[C@H](CO)NC(=O)[C@@H](N)C(C)C)ccc1C21OC(=O)c2ccccc21 [VS, (H-L-Val--Ser)2 Rho 110 .2TFA]
aberrant enzyme activity, GRANS (granulocytes [1]; P96 Viral Syndrome): .smallcircle.
aberrant enzyme activity, GRANS (granulocytes [1]; P97 Pyelonephritis): .smallcircle.
aberrant enzyme activity, GRANS (granulocytes [1]; P103 Viral Syndrome): .smallcircle.
enzyme activity, Lymphs (lymphocytes [4]; J4 11/21/91 acute leuk.): 0.05
enzyme activity, Lymphs (lymphocytes [4]; J4 12/2/91 A L): 0.03
enzyme activity, Lymphs (lymphocytes [4]; J4 12/3/91 acute leuk.): 0.04
enzyme activity, Lymphs (lymphocytes [4]; J5 11/27/91 A M L): 0.05
enzyme activity, Lymphs (lymphocytes [4]; J19 11/27/91 C L L): 0.01
enzyme activity, Lymphs (lymphocytes [4]; J22 12/2/91 A M L): 0.01
enzyme activity, Lymphs (lymphocytes [4]; J22 12/9/91 A M L): 0.04
enzyme activity, Lymphs (lymphocytes [4]; N191 normal): 0.14
enzyme activity, Lymphs (lymphocytes [4]; N192 normal): 0.08
enzyme activity, Lymphs (lymphocytes [4]; N193 normal): 0.09
enzyme activity, Lymphs (lymphocytes [4]; N194 normal): 0.07
enzyme activity, Lymphs (lymphocytes [4]; N195 normal): 0.06
enzyme activity, Lymphs (lymphocytes [4]; N197 normal): 0.11
enzyme activity, Lymphs (lymphocytes [4]; N199 normal): 0.03
enzyme activity, Lymphs (lymphocytes [4]; N200 normal): 0.06
enzyme activity, Lymphs (lymphocytes [4]; N201 normal): 0.07
enzyme activity, Lymphs (lymphocytes [4]; N202 normal): 0.04
enzyme activity, Lymphs (lymphocytes [4]; N206 normal): 0.28
enzyme activity, Lymphs (lymphocytes [4]; P68 tachycardia): 0.05
enzyme activity, Lymphs (lymphocytes [4]; P69 pancreatic CA): 0.18
enzyme activity, Lymphs (lymphocytes [4]; P70 cirrhosis/hemobilia): 0.04
enzyme activity, Lymphs (lymphocytes [4]; P71 ac. pyelonephritis): 0.08
enzyme activity, Grans (granulocytes [5]; J4 11/21/91 acute leuk.): 0.37
enzyme activity, Grans (granulocytes [5]; J4 12/2/91 A L): 0.14
enzyme activity, Grans (granulocytes [5]; J4 12/3/91 acute leuk.): 0.23
enzyme activity, Grans (granulocytes [5]; J22 12/2/91 A M L): 0.22
enzyme activity, Grans (granulocytes [5]; J22 12/9/91 A M L): 0.32
enzyme activity, Grans (granulocytes [5]; N191 normal): 0.64
enzyme activity, Grans (granulocytes [5]; N192 normal): 0.40
enzyme activity, Grans (granulocytes [5]; N193 normal): 0.44
enzyme activity, Grans (granulocytes [5]; N194 normal): 0.29
enzyme activity, Grans (granulocytes [5]; N195 normal): 0.37
enzyme activity, Grans (granulocytes [5]; N197 normal): 0.58
enzyme activity, Grans (granulocytes [5]; N199 normal): 0.14
enzyme activity, Grans (granulocytes [5]; N200 normal): 0.24
enzyme activity, Grans (granulocytes [5]; N201 normal): 0.32
enzyme activity, Grans (granulocytes [5]; N202 normal): 0.24
enzyme activity, Grans (granulocytes [5]; P68 tachycardia): 0.33
enzyme activity, Grans (granulocytes [5]; P69 pancreatic CA): 0.57
enzyme activity, Grans (granulocytes [5]; P70 cirrhosis/hemobilia): 0.26
enzyme activity, Grans (granulocytes [5]; P71 ac. pyelonephritis): 0.69
aberrant enzyme activity, LYMPHS (lymphocytes [2]; P95 Viral Syndrome): .smallcircle.
aberrant enzyme activity, LYMPHS (lymphocytes [2]; P96 Viral Syndrome): .smallcircle.
aberrant enzyme activity, LYMPHS (lymphocytes [2]; P97 Pyelonephritis): .smallcircle.
aberrant enzyme activity, LYMPHS (lymphocytes [2]; P103 Viral Syndrome): .smallcircle.
MEAN DELTA FL ([6]; HIV + PATIENTS): 32.5
MEAN DELTA FL ([6]; NORMALS): 24.6
aberrant enzyme activity, MONOS (monocytes; P96 Viral Syndrome): .smallcircle.
aberrant enzyme activity, MONOS (monocytes; P103 Viral Syndrome): .smallcircle.

C[C@H](N)C(=O)Nc1ccc2c(c1)Oc1cc(NC(=O)[C@H](C)N)ccc1C21OC(=O)c2ccccc21 [ALA, (Ala)2 Rho 110]
aberrant enzyme activity, GRANS (granulocytes [1]; P88 Enteritis): .smallcircle.
aberrant enzyme activity, GRANS (granulocytes [1]; P89 Viral Stomatitis): .smallcircle.
aberrant enzyme activity, GRANS (granulocytes [1]; P92 Adenitis): + (>0.25 Increase over normal range)
aberrant enzyme activity, GRANS (granulocytes [1]; P97 Pyelonephritis): + (>0.25 Increase over normal range)
aberrant enzyme activity, GRANS (granulocytes [1]; P102 UTI): .smallcircle.
aberrant enzyme activity, GRANS (granulocytes [1]; P103 Viral Syndrome): .smallcircle.
enzyme activity, Lymphs (lymphocytes [4]; J4 11/21/91 acute leuk.): 86.00
enzyme activity, Lymphs (lymphocytes [4]; J4 12/2/91 A L): 68.10
enzyme activity, Lymphs (lymphocytes [4]; J4 12/3/91 acute leuk.): 74.64
enzyme activity, Lymphs (lymphocytes [4]; J5 11/27/91 A M L): 92.44
enzyme activity, Lymphs (lymphocytes [4]; J19 11/27/91 C L L): 47.78
enzyme activity, Lymphs (lymphocytes [4]; J22 12/2/91 A M L): 84.42
enzyme activity, Lymphs (lymphocytes [4]; J22 12/9/91 A M L): 83.48
enzyme activity, Lymphs (lymphocytes [4]; N191 normal): 95.72
enzyme activity, Lymphs (lymphocytes [4]; N192 normal): 103.31
enzyme activity, Lymphs (lymphocytes [4]; N193 normal): 100.50
enzyme activity, Lymphs (lymphocytes [4]; N194 normal): 97.02
enzyme activity, Lymphs (lymphocytes [4]; N195 normal): 118.81
enzyme activity, Lymphs (lymphocytes [4]; N197 normal): 96.36
enzyme activity, Lymphs (lymphocytes [4]; N199 normal): 91.07
enzyme activity, Lymphs (lymphocytes [4]; N200 normal): 101.38
enzyme activity, Lymphs (lymphocytes [4]; N201 normal): 106.72
enzyme activity, Lymphs (lymphocytes [4]; N202 normal): 118.37
enzyme activity, Lymphs (lymphocytes [4]; N206 normal): 122.71
enzyme activity, Lymphs (lymphocytes [4]; P68 tachycardia): 1471.10
enzyme activity, Lymphs (lymphocytes [4]; P69 pancreatic CA): 130.34
enzyme activity, Lymphs (lymphocytes [4]; P70 cirrhosis/hemobilia): 141.87
enzyme activity, Lymphs (lymphocytes [4]; P71 ac. pyelonephritis): 109.26
enzyme activity, Grans (granulocytes [5]; J4 11/21/91 acute leuk.): 193.43
enzyme activity, Grans (granulocytes [5]; J4 12/2/91 A L): 139.53
enzyme activity, Grans (granulocytes [5]; J4 12/3/91 acute leuk.): 138.89
enzyme activity, Grans (granulocytes [5]; J5 11/27/91 A M L): 194.85
enzyme activity, Grans (granulocytes [5]; J19 11/27/91 C L L): 143.11
enzyme activity, Grans (granulocytes [5]; J22 12/2/91 A M L): 157.12
enzyme activity, Grans (granulocytes [5]; J22 12/9/91 A M L): 157.48
enzyme activity, Grans (granulocytes [5]; N191 normal): 177.32
enzyme activity, Grans (granulocytes [5]; N192 normal): 154.84
enzyme activity, Grans (granulocytes [5]; N193 normal): 178.64
enzyme activity, Grans (granulocytes [5]; N194 normal): 164.00
enzyme activity, Grans (granulocytes [5]; N195 normal): 221.28
enzyme activity, Grans (granulocytes [5]; N197 normal): 188.20
enzyme activity, Grans (granulocytes [5]; N199 normal): 157.30
enzyme activity, Grans (granulocytes [5]; N200 normal): 171.06
enzyme activity, Grans (granulocytes [5]; N201 normal): 206.06
enzyme activity, Grans (granulocytes [5]; N202 normal): 201.17
enzyme activity, Grans (granulocytes [5]; N206 normal): 232.57
enzyme activity, Grans (granulocytes [5]; P68 tachycardia): 276.07
enzyme activity, Grans (granulocytes [5]; P69 pancreatic CA): 204.02
enzyme activity, Grans (granulocytes [5]; P70 cirrhosis/hemobilia): 236.23
enzyme activity, Grans (granulocytes [5]; P71 ac. pyelonephritis): 185.37
aberrant enzyme activity, LYMPHS (lymphocytes [2]; P88 Enteritis): .smallcircle.
aberrant enzyme activity, LYMPHS (lymphocytes [2]; P89 Viral Stomatitis): .smallcircle.
aberrant enzyme activity, LYMPHS (lymphocytes [2]; P92 Adenitis): .smallcircle.
aberrant enzyme activity, LYMPHS (lymphocytes [2]; P97 Pyelonephritis): .smallcircle.
aberrant enzyme activity, LYMPHS (lymphocytes [2]; P102 UTI): .smallcircle.
aberrant enzyme activity, LYMPHS (lymphocytes [2]; P103 Viral Syndrome): .smallcircle.
MEAN DELTA FL ([6]; HIV + PATIENTS): 59.0
MEAN DELTA FL ([6]; NORMALS): 132.0
aberrant enzyme activity, MONOS (monocytes; P88 Enteritis): .smallcircle.
aberrant enzyme activity, MONOS (monocytes; P89 Viral Stomatitis): .smallcircle.
aberrant enzyme activity, MONOS (monocytes; P92 Adenitis): + (>0.25 Increase over normal range)
aberrant enzyme activity, MONOS (monocytes; P97 Pyelonephritis): + (>0.25 Increase over normal range)
aberrant enzyme activity, MONOS (monocytes; P102 UTI): + (>0.25 Increase over normal range)
aberrant enzyme activity, MONOS (monocytes; P103 Viral Syndrome): .smallcircle.

O=C1OC2(c3ccc(NC(=O)[C@@H]4CCCN4)cc3Oc3cc(NC(=O)[C@@H]4CCCN4)ccc32)c2ccccc21 [PRO, (H-L-Pro)2 --Rho 110 .2TFA]
aberrant enzyme activity, GRANS (granulocytes [1]; P92 Adenitis): .smallcircle.
aberrant enzyme activity, GRANS (granulocytes [1]; P97 Pyelonephritis): .smallcircle.
aberrant enzyme activity, GRANS (granulocytes [1]; P103 Viral Syndrome): .smallcircle.
enzyme activity, Lymphs (lymphocytes [4]; J4 11/21/91 acute leuk.): 0.47
enzyme activity, Lymphs (lymphocytes [4]; J4 12/2/91 A L): 0.29
enzyme activity, Lymphs (lymphocytes [4]; J4 12/3/91 acute leuk.): 0.24
enzyme activity, Lymphs (lymphocytes [4]; J5 11/27/91 A M L): 0.89
enzyme activity, Lymphs (lymphocytes [4]; J19 11/27/91 C L L): 0.44
enzyme activity, Lymphs (lymphocytes [4]; J22 12/2/91 A M L): 0.40
enzyme activity, Lymphs (lymphocytes [4]; J22 12/9/91 A M L): 0.44
enzyme activity, Lymphs (lymphocytes [4]; N191 normal): 0.69
enzyme activity, Lymphs (lymphocytes [4]; N193 normal): 0.95
enzyme activity, Lymphs (lymphocytes [4]; N194 normal): 0.86
enzyme activity, Lymphs (lymphocytes [4]; N195 normal): 0.88
enzyme activity, Lymphs (lymphocytes [4]; N197 normal): 0.57
enzyme activity, Lymphs (lymphocytes [4]; N200 normal): 0.74
enzyme activity, Lymphs (lymphocytes [4]; N201 normal): 1.10
enzyme activity, Lymphs (lymphocytes [4]; N202 normal): 0.89
enzyme activity, Lymphs (lymphocytes [4]; P68 tachycardia): 0.70
enzyme activity, Lymphs (lymphocytes [4]; P69 pancreatic CA): 0.66
enzyme activity, Lymphs (lymphocytes [4]; P70 cirrhosis/hemobilia): 0.56
enzyme activity, Lymphs (lymphocytes [4]; P71 ac. pyelonephritis): 0.52
enzyme activity, Grans (granulocytes [5]; J19 11/27/91 C L L): 5.50
enzyme activity, Grans (granulocytes [5]; N195 normal): 4.70
enzyme activity, Grans (granulocytes [5]; P69 pancreatic CA): 5.70
enzyme activity, Grans (granulocytes [5]; P70 cirrhosis/hemobilia): 0.66
aberrant enzyme activity, LYMPHS (lymphocytes [2]; P92 Adenitis): .smallcircle.
aberrant enzyme activity, LYMPHS (lymphocytes [2]; P97 Pyelonephritis): .smallcircle.
aberrant enzyme activity, LYMPHS (lymphocytes [2]; P103 Viral Syndrome): .smallcircle.
MEAN DELTA FL ([6]; HIV + PATIENTS): 11.0
MEAN DELTA FL ([6]; NORMALS): 11.4
aberrant enzyme activity, MONOS (monocytes; P92 Adenitis): .smallcircle.
aberrant enzyme activity, MONOS (monocytes; P97 Pyelonephritis): .smallcircle.
aberrant enzyme activity, MONOS (monocytes; P103 Viral Syndrome): .smallcircle.
